From ChEMBL document CHEMBL1146979, “Structure-activity relationship of thiopyrimidines as mGluR5 antagonists” (Bioorg Med Chem Lett, 2006) come the findings set out here.

pIC50: −log10 of the molar value.

Metabotropic glutamate receptor 2 (Homo sapiens), sequence (Q14416 19-872 limits assumed): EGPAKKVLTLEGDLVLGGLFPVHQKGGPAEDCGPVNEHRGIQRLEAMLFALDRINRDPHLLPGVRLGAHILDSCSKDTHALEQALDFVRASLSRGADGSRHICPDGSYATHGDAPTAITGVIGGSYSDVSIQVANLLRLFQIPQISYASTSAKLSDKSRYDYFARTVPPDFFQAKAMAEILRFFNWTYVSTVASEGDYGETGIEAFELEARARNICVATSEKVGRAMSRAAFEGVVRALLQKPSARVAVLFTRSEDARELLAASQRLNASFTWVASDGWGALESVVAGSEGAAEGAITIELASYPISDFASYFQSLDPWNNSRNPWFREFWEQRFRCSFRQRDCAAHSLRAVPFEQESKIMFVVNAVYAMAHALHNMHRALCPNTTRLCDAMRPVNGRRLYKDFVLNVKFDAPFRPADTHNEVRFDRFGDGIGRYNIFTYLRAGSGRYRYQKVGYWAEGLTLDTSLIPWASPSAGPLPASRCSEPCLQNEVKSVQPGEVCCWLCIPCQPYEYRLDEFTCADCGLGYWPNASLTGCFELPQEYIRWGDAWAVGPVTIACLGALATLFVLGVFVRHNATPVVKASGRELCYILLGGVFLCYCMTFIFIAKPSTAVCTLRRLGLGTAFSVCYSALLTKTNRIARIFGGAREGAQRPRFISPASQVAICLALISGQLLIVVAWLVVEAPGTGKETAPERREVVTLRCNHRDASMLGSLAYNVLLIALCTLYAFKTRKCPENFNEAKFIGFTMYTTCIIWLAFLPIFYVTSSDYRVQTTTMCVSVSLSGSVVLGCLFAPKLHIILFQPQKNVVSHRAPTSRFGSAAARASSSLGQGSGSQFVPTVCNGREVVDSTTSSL

The target in one data set is Metabotropic glutamate receptor 5 (Homo sapiens, UniProt P41594). The data set can be described thus: Inhibition of glutamate-induced calcium influx in human mGluR5d by FLIPR. The class given is functional.
Metabotropic glutamate receptor 5, sequence (P41594 whole entry): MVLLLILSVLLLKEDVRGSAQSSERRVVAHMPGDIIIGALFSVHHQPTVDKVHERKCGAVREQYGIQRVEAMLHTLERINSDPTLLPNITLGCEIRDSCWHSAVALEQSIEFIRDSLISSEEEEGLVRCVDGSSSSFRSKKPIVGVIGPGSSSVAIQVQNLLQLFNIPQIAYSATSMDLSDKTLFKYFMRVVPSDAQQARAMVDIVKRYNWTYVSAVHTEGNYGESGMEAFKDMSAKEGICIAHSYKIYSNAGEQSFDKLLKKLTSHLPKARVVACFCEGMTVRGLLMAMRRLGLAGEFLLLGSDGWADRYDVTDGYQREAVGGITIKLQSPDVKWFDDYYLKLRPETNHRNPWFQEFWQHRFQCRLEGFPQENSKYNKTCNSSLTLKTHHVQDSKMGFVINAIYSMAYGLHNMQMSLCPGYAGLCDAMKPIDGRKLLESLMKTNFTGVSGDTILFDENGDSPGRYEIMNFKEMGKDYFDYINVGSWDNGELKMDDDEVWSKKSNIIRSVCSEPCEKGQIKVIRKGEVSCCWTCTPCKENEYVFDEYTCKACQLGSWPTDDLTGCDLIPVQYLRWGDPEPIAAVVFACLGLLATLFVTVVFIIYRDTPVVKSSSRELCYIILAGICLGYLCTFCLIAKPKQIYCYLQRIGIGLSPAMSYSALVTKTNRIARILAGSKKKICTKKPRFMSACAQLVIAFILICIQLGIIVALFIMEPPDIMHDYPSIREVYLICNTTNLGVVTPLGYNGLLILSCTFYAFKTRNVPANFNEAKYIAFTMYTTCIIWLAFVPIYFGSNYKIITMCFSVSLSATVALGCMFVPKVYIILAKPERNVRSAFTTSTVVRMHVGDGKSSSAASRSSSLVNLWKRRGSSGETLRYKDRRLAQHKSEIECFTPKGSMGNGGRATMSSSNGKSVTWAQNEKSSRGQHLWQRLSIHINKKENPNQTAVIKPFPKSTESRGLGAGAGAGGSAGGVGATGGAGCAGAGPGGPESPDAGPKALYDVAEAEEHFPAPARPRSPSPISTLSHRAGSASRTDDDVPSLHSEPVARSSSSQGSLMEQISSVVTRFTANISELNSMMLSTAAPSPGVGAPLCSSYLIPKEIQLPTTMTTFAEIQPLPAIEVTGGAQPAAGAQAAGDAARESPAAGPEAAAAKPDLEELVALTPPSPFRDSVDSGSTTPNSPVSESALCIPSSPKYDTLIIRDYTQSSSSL
Conditions: not given; call rule not given here
For `Clc1ccc(Sc2cccc(-c3ccccn3)n2)cc1Cl`, the IC50 result is recorded as “Not Active”.
Same read-out and setting: for `Clc1ccc(-c2ccnc(-c3ccccn3)n2)cc1Cl` the value was “Not Active”; for `Clc1ccc(Sc2nccc(-c3ccccn3)n2)cc1Cl`, “Not Active”.

The same data set, now with this note: read-out: IC50.
As a reminder, the pIC50 is the negative decadic logarithm of the IC50, by convention in mol/L. With `Cc1cc(Sc2ccc(Cl)cc2)nc(-c2ccccn2)n1`, the negative logarithm of the IC50 (pIC50) is 5.90.
On the same count and under the same terms, in the case of `Clc1ccc(Oc2ccnc(-c3ccccn3)n2)cc1` it was less than 5.00.
Same read-out and setting: in the case of `Cc1cccc(-c2nccc(Sc3ccc(Cl)c(Cl)c3)n2)n1` it was 6.41; in that of `Clc1cccc(Sc2ccnc(-c3ccccn3)n2)c1`, 6.21; in that of `CC(=O)N(c1ccc(Cl)cc1)c1ccnc(-c2ccccn2)n1`, less than 5.00.
Still for that read-out and setting: in the case of `OC(c1ccc(Cl)cc1)c1ccnc(-c2ccccn2)n1` (stereo not given) it was less than 5.52.
For the compound `Clc1ccc(Nc2ccnc(-c3ccccn3)n2)cc1`, the pIC50 is less than 5.00.
For `Fc1ccc(-c2nccc(Sc3ccc(Cl)c(Cl)c3)n2)nc1`, the pIC50 was 7.10.
Take `FC(F)(F)c1cccc(Sc2ccnc(-c3ccccn3)n2)c1`: the pIC50 is 6.26.
Consider `FC(F)(F)c1ccc(Sc2ccnc(-c3ccccn3)n2)cc1`, for which the pIC50 is 6.68.
On the same count and under the same terms, in the case of `Clc1ccc(Sc2ccnc(-c3ccncc3)n2)cc1` it was less than 5.00; in that of `Brc1cccc(Sc2ccnc(-c3ccccn3)n2)c1`, 5.54; in that of `Clc1ccc(Sc2ccnc(-c3cccnc3)n2)cc1`, less than 5.00.
On the same count and under the same terms, for `Clc1ccc(Sc2ccnc(-c3ccccn3)c2)cc1Cl` the value was 5.63; for `Clc1ccc(Sc2ccnc(-c3ccccn3)n2)cc1Cl`, 7.05.
In the case of `Fc1ccc(Sc2ccnc(-c3ccccn3)n2)cc1F`, the pIC50 was 5.82.
Still for that read-out and setting: for `Cc1cccc(Sc2ccnc(-c3ccccn3)n2)c1` the value was 5.64; for `Clc1ccc(Sc2ccnc(-c3ccccn3)n2)cc1`, 6.49; for `Clc1ccc(Cc2ccnc(-c3ccccn3)n2)cc1`, less than 5.00.

A further data set has as its target Metabotropic glutamate receptor 2 (Homo sapiens) (UniProt Q14416). As to the kind of experiment: Activity against mGluR2.
Conditions: not given
For the compound `Cc1cccc(-c2nccc(Sc3ccc(Cl)c(Cl)c3)n2)n1`, the Activity was greater than 25 µM.
The same measure, in the same setting: in the case of `Fc1ccc(-c2nccc(Sc3ccc(Cl)c(Cl)c3)n2)nc1` it was greater than 25 µM.

In another data set the target is Metabotropic glutamate receptor 3 (Homo sapiens) (UniProt Q14832). As to the kind of experiment: Activity against mGluR3.
Metabotropic glutamate receptor 3 (Homo sapiens), sequence (Q14832 23-879 limits assumed): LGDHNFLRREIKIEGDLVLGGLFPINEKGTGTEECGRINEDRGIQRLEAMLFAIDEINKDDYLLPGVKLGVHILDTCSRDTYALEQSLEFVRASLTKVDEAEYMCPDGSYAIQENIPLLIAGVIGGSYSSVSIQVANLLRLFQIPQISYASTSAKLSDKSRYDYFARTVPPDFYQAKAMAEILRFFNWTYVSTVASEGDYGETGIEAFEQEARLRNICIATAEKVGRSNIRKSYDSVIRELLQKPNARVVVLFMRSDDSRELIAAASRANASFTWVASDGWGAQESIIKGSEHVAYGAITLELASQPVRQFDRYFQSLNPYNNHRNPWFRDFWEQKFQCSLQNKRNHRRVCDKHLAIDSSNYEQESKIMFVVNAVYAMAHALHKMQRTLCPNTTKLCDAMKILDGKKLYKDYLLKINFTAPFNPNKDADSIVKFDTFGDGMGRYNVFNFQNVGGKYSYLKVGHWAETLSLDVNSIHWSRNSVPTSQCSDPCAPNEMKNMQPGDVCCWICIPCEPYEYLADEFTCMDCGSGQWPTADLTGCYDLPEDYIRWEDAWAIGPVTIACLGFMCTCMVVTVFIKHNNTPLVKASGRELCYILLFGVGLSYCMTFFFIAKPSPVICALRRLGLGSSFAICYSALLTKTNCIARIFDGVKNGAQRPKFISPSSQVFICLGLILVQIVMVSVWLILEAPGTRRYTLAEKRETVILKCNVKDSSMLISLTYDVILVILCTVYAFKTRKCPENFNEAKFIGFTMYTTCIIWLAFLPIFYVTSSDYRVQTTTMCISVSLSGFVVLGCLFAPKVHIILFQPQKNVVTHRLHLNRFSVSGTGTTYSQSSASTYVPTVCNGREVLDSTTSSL
Conditions: not given
In turn, `Cc1cccc(-c2nccc(Sc3ccc(Cl)c(Cl)c3)n2)n1` showed an Activity greater than 25 µM.
The same measure, in the same setting: in the case of `Fc1ccc(-c2nccc(Sc3ccc(Cl)c(Cl)c3)n2)nc1` it was greater than 25 µM.

Another data set deals with Metabotropic glutamate receptor 8 (Homo sapiens) (UniProt O00222). The data set can be described thus: Activity against mGluR8.
Conditions: not given
Consider `Cc1cccc(-c2nccc(Sc3ccc(Cl)c(Cl)c3)n2)n1`, for which the Activity was greater than 25 µM.
Same read-out and setting: for `Fc1ccc(-c2nccc(Sc3ccc(Cl)c(Cl)c3)n2)nc1` the value was greater than 25 µM.

Tested on in the next data set: not listed separately
As to the kind of experiment: Clearance in human liver microsomes.
Conditions: not given
The format is ADME, Microsome. For orientation: Microsomes from liver hold many membrane-bound enzymes, among them those of drug oxidation.
Broadly, the microsomal CLint is the capacity of the preparation to metabolise the compound, expressed as a volume cleared per time. A lower microsomal CLint goes with greater metabolic stability. As for `Fc1ccc(-c2nccc(Sc3ccc(Cl)c(Cl)c3)n2)nc1`, the microsomal CLint is 140 µL/min/mg.
Turning to `Clc1ccc(Sc2ccnc(-c3ccccn3)n2)cc1Cl`, the microsomal CLint was 90 µL/min/mg.

For a further data set, the target named is Metabotropic glutamate receptor 6 (Homo sapiens) (UniProt O15303). The data set can be described thus: Activity against mGluR6.
Metabotropic glutamate receptor 6 (Homo sapiens), sequence (O15303 whole entry): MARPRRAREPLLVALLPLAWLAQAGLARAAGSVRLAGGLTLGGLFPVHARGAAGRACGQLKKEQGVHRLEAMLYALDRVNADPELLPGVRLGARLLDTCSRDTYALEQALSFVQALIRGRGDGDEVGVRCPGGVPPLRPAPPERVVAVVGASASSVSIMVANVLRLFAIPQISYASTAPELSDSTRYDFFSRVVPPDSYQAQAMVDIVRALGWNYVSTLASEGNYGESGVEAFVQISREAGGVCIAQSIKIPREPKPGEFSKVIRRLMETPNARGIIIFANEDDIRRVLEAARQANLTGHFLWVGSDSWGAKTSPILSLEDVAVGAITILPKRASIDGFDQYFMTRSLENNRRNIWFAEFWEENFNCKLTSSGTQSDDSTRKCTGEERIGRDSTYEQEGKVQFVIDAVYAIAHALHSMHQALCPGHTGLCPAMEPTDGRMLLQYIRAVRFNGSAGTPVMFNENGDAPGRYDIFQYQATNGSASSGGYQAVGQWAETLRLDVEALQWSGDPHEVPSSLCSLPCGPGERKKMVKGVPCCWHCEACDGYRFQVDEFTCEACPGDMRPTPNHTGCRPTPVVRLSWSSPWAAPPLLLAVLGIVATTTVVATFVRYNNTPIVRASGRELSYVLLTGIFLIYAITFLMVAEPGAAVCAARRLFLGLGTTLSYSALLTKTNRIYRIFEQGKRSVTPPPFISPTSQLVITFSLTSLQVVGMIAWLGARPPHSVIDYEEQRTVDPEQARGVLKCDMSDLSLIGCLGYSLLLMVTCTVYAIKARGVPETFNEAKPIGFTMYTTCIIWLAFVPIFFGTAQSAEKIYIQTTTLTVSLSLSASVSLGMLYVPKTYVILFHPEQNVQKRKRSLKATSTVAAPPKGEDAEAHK
Conditions: not given
For `Cc1cccc(-c2nccc(Sc3ccc(Cl)c(Cl)c3)n2)n1`, the Activity was greater than 25 µM.
On the same count and under the same terms, in the case of `Fc1ccc(-c2nccc(Sc3ccc(Cl)c(Cl)c3)n2)nc1` it was greater than 25 µM.

In the next data set the target is Metabotropic glutamate receptor 7 (Homo sapiens) (UniProt Q14831). As to the kind of experiment: Activity against mGluR7.
Conditions: not given
Take `Cc1cccc(-c2nccc(Sc3ccc(Cl)c(Cl)c3)n2)n1`: the Activity was greater than 25 µM.
`Fc1ccc(-c2nccc(Sc3ccc(Cl)c(Cl)c3)n2)nc1` registered an Activity greater than 25 µM.

For a further data set, the target named is Metabotropic glutamate receptor 4 (Homo sapiens) (UniProt Q14833). The data set can be described thus: Activity against mGluR4.
Metabotropic glutamate receptor 4 (Homo sapiens), sequence (Q14833 whole entry): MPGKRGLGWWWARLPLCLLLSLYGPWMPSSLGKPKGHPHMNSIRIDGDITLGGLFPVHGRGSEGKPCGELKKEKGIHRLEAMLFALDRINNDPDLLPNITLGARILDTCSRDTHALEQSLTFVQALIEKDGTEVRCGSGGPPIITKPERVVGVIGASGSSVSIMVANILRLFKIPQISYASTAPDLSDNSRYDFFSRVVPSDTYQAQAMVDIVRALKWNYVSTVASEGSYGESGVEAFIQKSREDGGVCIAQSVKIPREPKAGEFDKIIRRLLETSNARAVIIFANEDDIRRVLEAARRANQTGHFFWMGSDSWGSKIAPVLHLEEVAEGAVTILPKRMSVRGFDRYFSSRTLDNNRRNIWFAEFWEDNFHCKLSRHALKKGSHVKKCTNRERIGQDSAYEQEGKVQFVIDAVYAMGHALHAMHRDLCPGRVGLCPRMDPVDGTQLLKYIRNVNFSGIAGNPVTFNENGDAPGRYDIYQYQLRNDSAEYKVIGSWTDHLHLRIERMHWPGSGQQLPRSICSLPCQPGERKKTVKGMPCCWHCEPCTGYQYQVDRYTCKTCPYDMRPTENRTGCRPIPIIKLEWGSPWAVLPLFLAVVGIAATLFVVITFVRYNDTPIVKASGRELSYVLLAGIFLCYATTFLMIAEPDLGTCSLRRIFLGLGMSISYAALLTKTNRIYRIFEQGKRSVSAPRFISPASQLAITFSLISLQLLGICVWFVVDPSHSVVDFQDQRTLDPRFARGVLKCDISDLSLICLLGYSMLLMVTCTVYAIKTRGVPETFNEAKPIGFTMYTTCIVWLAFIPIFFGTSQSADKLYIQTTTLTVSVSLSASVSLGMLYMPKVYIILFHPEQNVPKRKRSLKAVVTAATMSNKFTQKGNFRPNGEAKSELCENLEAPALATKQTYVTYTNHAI
Conditions: not given
On to `Cc1cccc(-c2nccc(Sc3ccc(Cl)c(Cl)c3)n2)n1`, for which the Activity is greater than 25 µM.
`Fc1ccc(-c2nccc(Sc3ccc(Cl)c(Cl)c3)n2)nc1` yielded an Activity greater than 25 µM.

For the next data set, the target named is Metabotropic glutamate receptor 1 (Homo sapiens) (UniProt Q13255). The data set can be described thus: Activity against mGluR1.
Conditions: not given
`Cc1cccc(-c2nccc(Sc3ccc(Cl)c(Cl)c3)n2)n1`: the Activity was greater than 25 µM.
On the same count and under the same terms, in the case of `Fc1ccc(-c2nccc(Sc3ccc(Cl)c(Cl)c3)n2)nc1` it was greater than 25 µM.

Tested on in the next data set: not listed separately
As to the kind of experiment: Clearance in rat liver microsomes. The class given is ADME, Microsome.
Conditions: not given
For `Fc1ccc(-c2nccc(Sc3ccc(Cl)c(Cl)c3)n2)nc1`, the microsomal CLint was 90 µL/min/mg.
`Clc1ccc(Sc2ccnc(-c3ccccn3)n2)cc1Cl` had a microsomal CLint of 120 µL/min/mg.
